Calls of active or inactive are those of the source. No cut-off for these calls is given here.
How the values were obtained:
HCT-116 [1] = test: Inhibition of colony formation of human HCT116 cells assessed as reduction in clonogenic ability at 5 to 20 ug/ml incubated for 10 to 14 days by crystal violet staining based assay; type: functional, cell-based
SW480 = test: Inhibition of colony formation of human SW480 cells assessed as reduction in clonogenic ability at 5 to 20 ug/ml incubated for 10 to 14 days by crystal violet staining based assay; type: functional, cell-based
DLD-1 [2] = test: Inhibition of colony formation of human DLD1 cells assessed as reduction in clonogenic ability at 5 to 20 ug/ml incubated for 10 to 14 days by crystal violet staining based assay; type: functional, cell-based
HCT-116 [3] = test: Induction of apoptosis in human HCT116 cells incubated for 48 hrs by annexin-V/PI staining based flow cyclometry; type: functional, cell-based
HCT-116 [4] = test: Induction of apoptosis in human HCT116 cells assessed as reduction in Bcl2 protein expression incubated for 48 hrs by Western blot analysis; type: functional, cell-based
HCT-116 [5] = test: Induction of apoptosis in human HCT116 cells assessed as increase in Bax protein expression incubated for 48 hrs by Western blot analysis; type: functional, cell-based
HCT-116 [6] = test: Induction of apoptosis in human HCT116 cells assessed as increase in cleaved capse-3 protein level incubated for 48 hrs by Western blot analysis; type: functional, cell-based
HCT-116 [7] = test: Induction of mitochondrial membrane potential loss in human HCT116 cells at 5 to 20 ug/ml incubated for 48 hrs by RH123.dye based FCM analysis; type: functional, cell-based
HCT-116 [8] = test: Induction of ROS generation in human HCT116 cells at 5 to 20 ug/ml incubated for 48 hrs by DCFH-DA staining based FCM analysis; type: functional, cell-based
DLD-1 [9] = test: Inhibition of cell migration in human DLD1 cells at 5 to 20 ug/ml incubated for 48 hrs by Transwell migration assay; type: functional, cell-based
DLD-1 [10] = test: Inhibition of cell invasion in human DLD1 cells at 5 to 20 ug/ml incubated for 48 hrs by crystal violet staining based inverted microscopy; type: functional
DLD-1 [11] = test: Inhibition of cell motility associated protein expression in human DLD1 cells assessed as effect on MMP2 expression at 5 to 20 ug/ml incubated for 48 hrs by Western blot analysis; type: functional, cell-based
DLD-1 [12] = test: Inhibition of cell motility associated protein expression in human DLD1 cells assessed as effect on MMP9 expression at 5 to 20 ug/ml incubated for 48 hrs by Western blot analysis; type: functional, cell-based
DLD-1 [13] = test: Inhibition of cell motility associated protein expression in human DLD1 cells assessed as effect on TIMP2 expression at 5 to 20 ug/ml incubated for 48 hrs by Western blot analysis; type: functional, cell-based
HCT-116 [14] = test: Induction of apoptosis in human HCT116 cells assessed as viable cell level at 5 ug/ml incubated for 48 hrs by annexin-V/PI staining based flow cyclometry (reference value: 81.8%); type: functional
HCT-116 [15] = test: Induction of apoptosis in human HCT116 cells assessed as early apoptotic cell level at 5 ug/ml incubated for 48 hrs by annexin-V/PI staining based flow cyclometry (reference value: 1.84%); type: functional
HCT-116 [16] = test: Induction of apoptosis in human HCT116 cells assessed as late apoptotic cell level at 5 ug/ml incubated for 48 hrs by annexin-V/PI staining based flow cyclometry (reference value: 5.11%); type: functional
HCT-116 [17] = test: Induction of apoptosis in human HCT116 cells assessed as necrotic cell level at 5 ug/ml incubated for 48 hrs by annexin-V/PI staining based flow cyclometry (reference value: 4.9%); type: functional
HCT-116 [18] = test: Induction of apoptosis in human HCT116 cells assessed as viable cell level at 10 ug/ml incubated for 48 hrs by annexin-V/PI staining based flow cyclometry (reference value: 81.8%); type: functional
HCT-116 [19] = test: Induction of apoptosis in human HCT116 cells assessed as early apoptotic cell level at 10 ug/ml incubated for 48 hrs by annexin-V/PI staining based flow cyclometry (reference value: 1.84%); type: functional
HCT-116 [20] = test: Induction of apoptosis in human HCT116 cells assessed as late apoptotic cell level at 10 ug/ml incubated for 48 hrs by annexin-V/PI staining based flow cyclometry (reference value: 5.11%); type: functional
HCT-116 [21] = test: Induction of apoptosis in human HCT116 cells assessed as necrotic cell level at 10 ug/ml incubated for 48 hrs by annexin-V/PI staining based flow cyclometry (reference value: 4.9%); type: functional
HCT-116 [22] = test: Induction of apoptosis in human HCT116 cells assessed as viable cell level at 20 ug/ml incubated for 48 hrs by annexin-V/PI staining based flow cyclometry (reference value: 81.8%); type: functional
HCT-116 [23] = test: Induction of apoptosis in human HCT116 cells assessed as early apoptotic cell level at 20 ug/ml incubated for 48 hrs by annexin-V/PI staining based flow cyclometry (reference value: 1.84%); type: functional
HCT-116 [24] = test: Induction of apoptosis in human HCT116 cells assessed as late apoptotic cell level at 20 ug/ml incubated for 48 hrs by annexin-V/PI staining based flow cyclometry (reference value: 5.11%); type: functional
HCT-116 [25] = test: Induction of apoptosis in human HCT116 cells assessed as necrotic cell level at 20 ug/ml incubated for 48 hrs by annexin-V/PI staining based flow cyclometry (reference value: 4.9%); type: functional
[26] = Toxicity in BALB/c mouse xenografted with human HCT116 cells assessed as effect on body weight at 10 to 20 mg/kg, ip dosed daily for 21 days starting from 1 day post implantation and measured every three days; type: organism-based; details: in vivo
HCT-116 [27] = test: Antitumor activity against human HCT116 cells xenografted in BALB/c mouse assessed as inhibition of tumor growth at 10 to 20 mg/kg, ip dosed daily for 21 days starting from 1 day post implantation and measured every three days; type: functional, organism-based
HCT-116 [28] = test: Antitumor activity against human HCT116 cells xenografted in BALB/c mouse assessed as reduction in Ki-67 positive cells in tumor at 10 to 20 mg/kg, ip dosed daily for 21 days starting from 1 day post implantation and measured every three days by immunohistochemistry analysis; type: functional, organism-based
HCT-116 [29] = test: Antitumor activity against human HCT116 cells xenografted in BALB/c mouse assessed as reduction in MMP2 positive cells in tumor at 10 to 20 mg/kg, ip dosed daily for 21 days starting from 1 day post implantation and measured every three days by immunohistochemistry analysis; type: functional, organism-based
[30] = Toxicity in BALB/c mouse xenografted with human HCT116 cells assessed as induction of alterations in heart at 10 to 20 mg/kg, ip dosed daily for 21 days starting from 1 day post implantation and measured every three days by hematoxylin and eosin staining based histopathological analysis; type: organism-based; details: in vivo
[31] = Toxicity in BALB/c mouse xenografted with human HCT116 cells assessed as induction of alterations in liver at 10 to 20 mg/kg, ip dosed daily for 21 days starting from 1 day post implantation and measured every three days by hematoxylin and eosin staining based histopathological analysis; type: organism-based; details: in vivo
[32] = Toxicity in BALB/c mouse xenografted with human HCT116 cells assessed as induction of alterations in spleen at 10 to 20 mg/kg, ip dosed daily for 21 days starting from 1 day post implantation and measured every three days by hematoxylin and eosin staining based histopathological analysis; type: organism-based; details: in vivo
[33] = Toxicity in BALB/c mouse xenografted with human HCT116 cells assessed as induction of alterations in lung at 10 to 20 mg/kg, ip dosed daily for 21 days starting from 1 day post implantation and measured every three days by hematoxylin and eosin staining based histopathological analysis; type: organism-based; details: in vivo
[34] = Toxicity in BALB/c mouse xenografted with human HCT116 cells assessed as induction of alterations in kidney at 10 to 20 mg/kg, ip dosed daily for 21 days starting from 1 day post implantation and measured every three days by hematoxylin and eosin staining based histopathological analysis; type: organism-based; details: in vivo
HCT-116 [35] = test: Induction of mitochondrial membrane potential loss in human HCT116 cells at 5 ug/ml incubated for 48 hrs by RH123.dye based FCM analysis (reference value: 6.37%); type: functional
HCT-116 [36] = test: Induction of mitochondrial membrane potential loss in human HCT116 cells at 10 ug/ml incubated for 48 hrs by RH123.dye based FCM analysis (reference value: 6.37%); type: functional
HCT-116 [37] = test: Induction of mitochondrial membrane potential loss in human HCT116 cells at 20 ug/ml incubated for 48 hrs by RH123.dye based FCM analysis (reference value: 6.37%); type: functional
HCT-116 [38] = test: Induction of ROS generation in human HCT116 cells at 5 ug/ml incubated for 48 hrs by DCFH-DA staining based FCM analysis (reference value: 4.44%); type: functional
HCT-116 [39] = test: Induction of ROS generation in human HCT116 cells at 10 ug/ml incubated for 48 hrs by DCFH-DA staining based FCM analysis (reference value: 4.44%); type: functional
HCT-116 [40] = test: Induction of ROS generation in human HCT116 cells at 20 ug/ml incubated for 48 hrs by DCFH-DA staining based FCM analysis (reference value: 4.44%); type: functional

For `C=C(C)[C@@H]1CC[C@]2(C(=O)O)CC[C@]3(C)[C@H](CC[C@@H]4[C@@]5(C)CC[C@H](O)C(C)(C)[C@@H]5CC[C@]43C)[C@@H]12` [BETULINIC ACID], the inhibition (HCT-116 [1]) was “Active”, the inhibition (SW480) was “Active” and the inhibition (DLD-1 [2]) was “Active”. For the same molecule, the Activity (HCT-116 [3]) was “Dose-dependent effect”, the Activity (HCT-116 [4]) was “Dose-dependent effect” and the Activity (HCT-116 [5]) was “Dose-dependent effect”. For the same molecule, the Activity (HCT-116 [6]) was “Dose-dependent effect”, the Activity (HCT-116 [7]) was “Active” and the Activity (HCT-116 [8]) was “Dose-dependent effect”. The Activity (DLD-1 [9]) was “Active”, the Activity (DLD-1 [10]) was “Active” and the inhibition (DLD-1 [11]) was “Active”. For the same molecule, the inhibition (DLD-1 [12]) was “Active”, the inhibition (DLD-1 [13]) was “Active” and the Activity (HCT-116 [14]) was 79%. The Activity (HCT-116 [15]) was 1.63%, the Activity (HCT-116 [16]) was 11.5% and the Activity (HCT-116 [17]) was 7.94%. The Activity (HCT-116 [18]) was 73.8%, the Activity (HCT-116 [19]) was 2.33% and the Activity (HCT-116 [20]) was 13%. It also gave an Activity (HCT-116 [21]) of 10.9%, an Activity (HCT-116 [22]) of 53.5% and an Activity (HCT-116 [23]) of 6.72%. For the same molecule, the Activity (HCT-116 [24]) was 25.2%, the Activity (HCT-116 [25]) was 14.5% and the Activity [26] was “Non-Toxic”. For the same molecule, the TGI (HCT-116 [27]) was “Active”, the inhibition (HCT-116 [28]) was “Active” and the inhibition (HCT-116 [29]) was “Active”. For the same molecule, the Activity [30] was “Non-Toxic”, the Activity [31] was “Non-Toxic” and the Activity [32] was “Non-Toxic”. For the same molecule, the Activity [33] was “Non-Toxic”, the Activity [34] was “Non-Toxic” and the Activity (HCT-116 [35]) was 17.2%. For the same molecule, the Activity (HCT-116 [36]) was 19.5%, the Activity (HCT-116 [37]) was 21.3% and the Activity (HCT-116 [38]) was 9.58%. The Activity (HCT-116 [39]) was 13.6% and the Activity (HCT-116 [40]) was 18.9%.
